The structures appear in SMILES notation.

The values below come from patent US20250255298A1, “PENETRATION PROMOTER” (IBIDEN CO., LTD., priority 2023, published 2025).

The subject of the first data set is soybean (variety: Fukuyutaka) leaves. Description: Test on penetrability in soybean (absorbent cotton with test penetrant on leaf, LC-MS/MS of leaf extract). The settings on record: penetration promoter solutions of Examples 1 and 2. As for the experimental part: (§1) A solution obtained by adding 40 μL (20 mg) of pine oil (manufactured by ease Inc.) to 2000 mL of each of the penetration promoter solutions 1 to 8 was used as a terpene test penetrant.
(§2) A liquid obtained by dissolving 450 mg of ground nucleic acid particles (manufactured by Kenkououendan Inc.) in 2000 mL of each of the penetration promoter solutions 1 to 8 was used as a nucleic acid test penetrant.
A liquid obtained by dispersing 100 mg of soybean-derived lecithin (manufactured by FUJIFILM Wako Pure Chemical Corporation) in 2000 mL of each of the penetration promoter solutions 1 to 8 was used as a phospholipid test penetrant. • Penetrability test of each organic substance using test penetrant
Four soybean (variety: Fukuyutaka) seeds were seeded, per pot, in a No. 3 pot containing Seeding Soil for Vegetables and Flowers (manufactured by Takii Co., Ltd.). […]
(§3) The analysis sample was analyzed for the amount of terpene using an LC-MS/MS apparatus (LC part: DIONEX Ultimate3000, MS/MS part: Q Exactive Focus: manufactured by Thermo Fisher Scientific K.K.) under the following conditions. […] Quantification was performed from the MS-peak area value of α-pinene contained in pine oil (manufactured by ease Inc.), and the amounts of terpene penetrated into the intralobar tissue by the penetration promoter solutions 1 to 8 (Examples 1 and 2 and Comparative Examples 1 to 6) were compared. […]
As for `CCCCCCCC/C=C\CCCCCCCC(=O)O` [oleic acid], the “penetrability with oleic acid as compared with terpene” value is “slightly decreased”.

Test system in another data set: not given
Experiment: not given
The conditions noted are these: indicated as common logarithmic value Log Kow or Log P; cited from earlier work.
Take `Nc1ncnc2nc[nH]c12` [adenine]: the octanol/water partition coefficient is listed as −0.1.

Take `Nc1ncnc2c1ncn2[C@@H]1O[C@H](COP(=O)(O)O)[C@@H](O)[C@H]1O` [adenosine monophosphate]: the octanol/water partition coefficient is reported as −3.1. As to `Nc1ncnc2c1ncn2[C@@H]1O[C@H](CO)[C@@H](O)[C@H]1O` [adenosine], the octanol/water partition coefficient is recorded as −1.2. With `C[C@H](N)C(=O)O` [alanine], the octanol/water partition coefficient was −2.85. Consider `N[C@@H](CS)C(=O)O` [cysteine], for which the octanol/water partition coefficient is −2.49. In the case of `Nc1cc[nH]c(=O)n1` [cytosine], the octanol/water partition coefficient is recorded as −1.73.

In the case of `N[C@@H](CCC(=O)O)C(=O)O` [glutamic acid], the octanol/water partition coefficient is −3.69. Turning to `NC(=O)CC[C@H](N)C(=O)O` [glutamine], the octanol/water partition coefficient is reported as −3.64. Turning to `Nc1nc2nc[nH]c2c(=O)[nH]1` [guanine], the octanol/water partition coefficient is recorded as −0.91. On to `Nc1nc2c(ncn2[C@@H]2O[C@H](CO)[C@@H](O)[C@H]2O)c(=O)[nH]1` [guanosine], for which the octanol/water partition coefficient was −1.9. On to `N[C@@H](Cc1c[nH]cn1)C(=O)O` [histidine], for which the octanol/water partition coefficient is on record as −3.32. Regarding `CC[C@H](C)[C@H](N)C(=O)O` [isoleucine], the octanol/water partition coefficient was −1.70. Consider `CC(C)C[C@H](N)C(=O)O` [leucine], for which the octanol/water partition coefficient is −1.52. Turning to `NCCCC[C@H](N)C(=O)O` [lysine], the octanol/water partition coefficient was −3.05. Regarding `CSCC[C@H](N)C(=O)O` [methionine], the octanol/water partition coefficient is reported as −1.87. Take `CCCCCCCC/C=C\CCCCCCCC(=O)O` [oleic acid]: the octanol/water partition coefficient was 7.73. With `N[C@@H](Cc1ccccc1)C(=O)O` [phenylalanine], the octanol/water partition coefficient was −1.38.

For `O=C(O)[C@@H]1CCCN1` [proline], the octanol/water partition coefficient is −2.54. In the case of `N[C@@H](CO)C(=O)O` [serine], the octanol/water partition coefficient was −3.07. As to `Cc1cn([C@H]2C[C@H](O)[C@@H](COP(=O)(O)O)O2)c(=O)[nH]c1=O` [thymidine monophosphate], the octanol/water partition coefficient is recorded as −2.8. As for `Cc1cn([C@H]2C[C@H](O)[C@@H](CO)O2)c(=O)[nH]c1=O` [thymidine], the octanol/water partition coefficient is listed as −0.93. Consider `Cc1c[nH]c(=O)[nH]c1=O` [thymine], for which the octanol/water partition coefficient is −0.62. As to `N[C@@H](Cc1c[nH]c2ccccc12)C(=O)O` [tryptophan], the octanol/water partition coefficient is recorded as −1.05. As to `O=c1ccn([C@@H]2O[C@H](CO)[C@@H](O)[C@H]2O)c(=O)[nH]1` [uridine], the octanol/water partition coefficient is given as −1.98. With `CC(C)[C@H](N)C(=O)O` [valine], the octanol/water partition coefficient is −2.26.

In the next data set the test system is Rice (variety: Nipponbare) leaves. The data set can be described thus: Test on penetrability in rice (cut leaves soaked in test penetrant, LC-MS/MS of leaf extract). The settings on record: penetration promoter solutions of Examples 1 and 2. The protocol:
as §1, §2
A liquid obtained by dispersing 100 mg of soybean-derived lecithin (manufactured by FUJIFILM Wako Pure Chemical Corporation) in 2000 mL of each of the penetration promoter solutions 1 to 8 was used as a phospholipid test penetrant. • Penetrability test of each organic substance using test penetrant […]
as §3
For the molecule `CCCCCCCC/C=C\CCCCCCCC(=O)O` [oleic acid], the “penetrability with oleic acid as compared with terpene” value is “slightly decreased”.
